Measured values taken from patent US8163781B2, “Bi-aryl aminotetralines” (Hoffman-La Roche Inc., priority 2008, dated 2012).

Target: T1, human CRTH2 (Homo sapiens, UniProt Q9Y5Y4)
T1 construct: expressed in transfected cells
T1 sequence (Q9Y5Y4 1-395): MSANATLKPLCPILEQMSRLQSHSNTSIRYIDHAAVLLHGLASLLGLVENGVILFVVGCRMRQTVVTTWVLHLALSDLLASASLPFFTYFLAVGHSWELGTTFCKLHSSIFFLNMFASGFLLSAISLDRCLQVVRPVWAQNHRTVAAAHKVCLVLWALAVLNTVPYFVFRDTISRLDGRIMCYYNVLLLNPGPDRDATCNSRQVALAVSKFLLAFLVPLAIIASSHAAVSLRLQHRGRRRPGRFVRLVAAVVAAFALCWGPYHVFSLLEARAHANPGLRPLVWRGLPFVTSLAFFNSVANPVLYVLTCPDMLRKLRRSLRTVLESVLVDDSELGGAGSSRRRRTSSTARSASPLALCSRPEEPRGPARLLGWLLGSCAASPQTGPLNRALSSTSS
Assay: Human CRTH2 Receptor Binding Assay
Conditions: whole cell binding, CHO-K1 cells expressing human CRTH2, 20 nM [3H]ramatroban as competing radioligand
Text: A whole cell receptor binding assay using [^3H]ramatroban as the competing radioactive ligand was employed to evaluate the compound binding activity to human CRTH2. The radioactive ligand [^3H]ramatroban was synthesized according to Sugimoto et. al. (Eur. J. Pharmacol. 524, 30-37, 2005) to a specific activity of 42 Ci/mmol.
A cell line stably expressing human CRTH2 was established by transfecting CHO-K1 cells with two mammalian expression vectors that harbored human CRTH2 and G-alpha16 cDNAs, respectively, using FuGene® 6 transfection reagent (from Roche). Stable clones expressing CRTH2 were selected by staining each clone with BM16 (BD Pharmingen™ from BD Biosciences, a division of Becton, Dickinson and Company), which is a rat monoclonal antibody to human CRTH2. The cells were maintained as monolayer cultures in Ham's F-12 medium containing 10% fetal bovine serum, 100 units/mL penicillin, 100 μg/mL streptomycin, 2 mM glutamine, 0.5 mg/mL G418 (geneticin) for CRTH2, and 0.2 mg/mL hygromycin-B (for G-alpha 16). For whole cell receptor binding assay, the monolayer cells were rinsed once with PBS (phosphate buffered saline), dissociated using ethylenediaminetetraacetate (Versene™ EDTA from the Lonza Inc.), and suspended in PBS containing 10 mM MgCl2 and 0.06% BSA (bovine serum albumin) at 1.5×10^6 cells/mL.
The binding reactions (0.2 mL) were performed in 96-well plates at room temperature in PBS containing 1.5×10^5 cells, 10 mM MgCl2, 0.06% BSA, 20 nM [^3H]ramatroban, and test compound at various concentrations. After 1 hour of binding reactions, the cells were harvested on GF™/B filter microplates (microtiter plates with embedded glass fiber from PerkinElmer, Inc.) and washed 5 times with PBS using a Filtermate™ Harvester (a cell harvester that harvests and washes cells from microplates from PerkinElmer, Inc.). The radioactivities bound to the cells were determined using a microplate scintillation counter (TopCount® NXT, from PerkinElmer, Inc.) after adding 50 μL of Microscint™ 20 scintillation fluid (from PerkinElmer, Inc.) to each well of the filter plates. The radioactivity from non-specific binding was determined by replacing compound with 10 μM of 15(R)-15-methyl PGD2 (from Cayman Chemical Company) in the reaction mixtures. The radioactivity bound to the cells in the absence of compound (total binding) was determined by replacing compound with 0.25% of DMSO (dimethyl sulfoxide) in the reaction mixture. Specific binding data were obtained by subtracting the radioactivity of non-specific binding from each binding data.
The IC50 value is defined as the concentration of the tested compound that is required for 50% inhibition of total specific binding. In order to calculate the IC50 value, the percent inhibition data were determined for 7 concentrations for each compound. The percent inhibition for a compound at each concentration was calculated according to the following formula, [1-(specific binding in the presence of compound)/(total specific binding)]×100. The IC50 value was then obtained by fitting the percent inhibition data to a sigmoidal dose-response (4 parameter logistic) model in the XLfit® software Excel add-in program [from ID Business Solutions Ltd., model 205, where F(x)=(A+(B−A)/(1+((C/x)^D)))].

| IC50 [nM] | Structure (SMILES) |
| --- | --- |
| 55.1 | O=C(O)COc1cccc2c1CCCC2NS(=O)(=O)c1ccc(-c2cc(F)ccn2)cc1 (stereo not shown) [Example 3-1, {5-[4-(4-Fluoro-pyridin-2-yl)-benzenesulfonylamino]-5,6,7,8-tetrahydro-naphthalen-1-yloxy}-acetic acid] |
| 203 | O=C(O)COc1cccc2c1CCCC2NS(=O)(=O)c1ccc(-c2cccnc2F)cc1 (stereo not shown) [Example 3-3, {5-[4-(2-Fluoro-pyridin-3-yl)-benzenesulfonylamino]-5,6,7,8-tetrahydro-naphthalen-1-yloxy}-acetic acid] |
| 74.9 | Cc1cccc(-c2ccc(S(=O)(=O)NC3CCCc4c(OCC(=O)O)cccc43)cc2)n1 (stereo not shown) [Example 3-9, {5-[4-(6-Methyl-pyridin-2-yl)-benzenesulfonylamino]-5,6,7,8-tetrahydro-naphthalen-1-yloxy}-acetic acid] |
| 20.3 | CS(=O)(=O)c1cncc(-c2ccc(S(=O)(=O)NC3CCCc4c(OCC(=O)O)cccc43)cc2)c1 (stereo not shown) [Example 3-16, {5-[4-(5-Methanesulfonyl-pyridin-3-yl)-benzenesulfonylamino]-5,6,7,8-tetrahydro-naphthalen-1-yloxy}-acetic acid] |
| 124 | O=C(O)COc1cccc2c1CCC[C@H]2NS(=O)(=O)c1ccc(-c2ccc(O)cc2)cc1 [Example 3-23, [(R)-5-(4′-Hydroxy-biphenyl-4-sulfonylamino)-5,6,7,8-tetrahydro-naphthalen-1-yloxy]-acetic acid] |
| 67.1 | CN(C)C(=O)c1ccc(-c2ccc(S(=O)(=O)N[C@@H]3CCCc4c(OCC(=O)O)cccc43)cc2)cc1 [Example 3-30, [(R)-5-(4′-Dimethylcarbamoyl-biphenyl-4-sulfonylamino)-5,6,7,8-tetrahydro-naphthalen-1-yloxy]-acetic acid] |
| 157 | Cc1ccc(-c2ccc(S(=O)(=O)N[C@@H]3CCCc4c(OCC(=O)O)cccc43)cc2C)cc1 [Example 3-34, [(R)-5-(2,4′-Dimethyl-biphenyl-4-sulfonylamino)-5,6,7,8-tetrahydro-naphthalen-1-yloxy]-acetic acid] |
| 23.9 | O=C(O)COc1cccc2c1CCC[C@H]2NS(=O)(=O)c1ccc(-c2cccc([N+](=O)[O-])c2)cc1 [Example 3-41, [(R)-5-(3′-Nitro-biphenyl-4-sulfonylamino)-5,6,7,8-tetrahydro-naphthalen-1-yloxy]-acetic acid] |
| 5.9 | Cc1cc(-c2ccc(S(=O)(=O)N[C@@H]3CCCc4c(OCC(=O)O)cccc43)cc2)cc(C(C)(C)C)c1 [Example 3-45, [(R)-5-(3′-tert-Butyl-5′-methyl-biphenyl-4-sulfonylamino)-5,6,7,8-tetrahydro-naphthalen-1-yloxy]-acetic acid] |
| 4.8 | Cc1cc(-c2ccc(S(=O)(=O)N[C@@H]3CCCc4c(OCC(=O)O)cccc43)nc2)cc(C(C)(C)C)c1 [Example 3-48, {(R)-5-[5-(3-tert-Butyl-5-methyl-phenyl)-pyridine-2-sulfonylamino]-5,6,7,8-tetrahydro-naphthalen-1-yloxy}-acetic acid] |

The next lines start with the molecule.

| Structure (SMILES) | IC50 [nM] |
| --- | --- |
| Cc1ccc(-c2ccc(S(=O)(=O)N[C@@H]3CCCc4c(OCC(=O)O)cccc43)cc2)cc1 [Example 1-2, [(R)-5-(4′-Methyl-biphenyl-4-sulfonylamino)-5,6,7,8-tetrahydro-naphthalen-1-yloxy]-acetic acid] | 51.6 |
| O=C(O)COc1cccc2c1CCCC2NS(=O)(=O)c1cccc(Oc2ccccc2)c1 (stereo not shown) [Example 1-3, [5-(3-Phenoxy-benzenesulfonylamino)-5,6,7,8-tetrahydro-naphthalen-1-yloxy]-acetic acid] | 200 |
| O=C(O)COc1cccc2c1CCCC2NS(=O)(=O)c1ccc(Oc2ccccc2)nc1 (stereo not shown) [Example 1-6, [5-(6-Phenoxy-pyridine-3-sulfonylamino)-5,6,7,8-tetrahydro-naphthalen-1-yloxy]-acetic acid] | 188 |
| O=C(O)COc1cccc2c1CCC[C@H]2NS(=O)(=O)c1ccc(-c2ccc(F)cc2)cc1 [Example 1-7, [(R)-5-(4′-Fluoro-biphenyl-4-sulfonylamino)-5,6,7,8-tetrahydro-naphthalen-1-yloxy]-acetic acid] | 52.6 |
| COc1ccc(-c2ccc(S(=O)(=O)N[C@@H]3CCCc4c(OCC(=O)O)cccc43)cc2)cc1 [Example 1-8, [(R)-5-(4′-Methoxy-biphenyl-4-sulfonylamino)-5,6,7,8-tetrahydro-naphthalen-1-yloxy]-acetic acid] | 65.9 |
| O=C(O)COc1cccc2c1CCC[C@H]2NS(=O)(=O)c1ccc(-c2ccc(Cl)cc2)cc1 [Example 1-9, [(R)-5-(4′-Chloro-biphenyl-4-sulfonylamino)-5,6,7,8-tetrahydro-naphthalen-1-yloxy]-acetic acid] | 84.1 |
| CC(=O)c1ccc(-c2ccc(S(=O)(=O)N[C@@H]3CCCc4c(OCC(=O)O)cccc43)cc2)cc1 [Example 1-10, [(R)-5-(4′-Acetyl-biphenyl-4-sulfonylamino)-5,6,7,8-tetrahydro-naphthalen-1-yloxy]-acetic acid] | 67.4 |
| O=C(O)COc1cccc2c1CCCC2NS(=O)(=O)c1cnc(Oc2ccc(F)cc2Cl)c(Br)c1 (stereo not shown) [Example 2-1, {5-[5-Bromo-6-(2-chloro-4-fluoro-phenoxy)-pyridine-3-sulfonylamino]-5,6,7,8-tetrahydro-naphthalen-1-yloxy}-acetic acid] | 76.4 |
| O=C(O)COc1cccc2c1CCC[C@H]2NS(=O)(=O)c1ccc(Oc2ccc(Cl)cc2)c(Cl)c1 [Example 2-2, {(R)-5-[3-Chloro-4-(4-chloro-phenoxy)-benzenesulfonylamino]-5,6,7,8-tetrahydro-naphthalen-1-yloxy}-acetic acid] | 10.2 |
| N#Cc1cccc(Oc2ncc(S(=O)(=O)NC3CCCc4c(OCC(=O)O)cccc43)cc2Br)c1 (stereo not shown) [Example 2-6, {5-[5-Bromo-6-(3-cyano-phenoxy)-pyridine-3-sulfonylamino]-5,6,7,8-tetrahydro-naphthalen-1-yloxy}-acetic acid] | 60.3 |
| CC(C)c1cccc(Oc2ncc(S(=O)(=O)NC3CCCc4c(OCC(=O)O)cccc43)cc2Br)c1 (stereo not shown) [Example 2-9, {5-[5-Bromo-6-(3-isopropyl-phenoxy)-pyridine-3-sulfonylamino]-5,6,7,8-tetrahydro-naphthalen-1-yloxy}-acetic acid] | 21.2 |
| Cc1cc(C)cc(Oc2ncc(S(=O)(=O)NC3CCCc4c(OCC(=O)O)cccc43)cc2Br)c1 (stereo not shown) [Example 2-15, {5-[5-Bromo-6-(3,5-dimethyl-phenoxy)-pyridine-3-sulfonylamino]-5,6,7,8-tetrahydro-naphthalen-1-yloxy}-acetic acid] | 75.2 |
| O=C(O)COc1cccc2c1CCCC2NS(=O)(=O)c1cnc(Oc2ccc3c(c2)CCC3)c(Br)c1 (stereo not shown) [Example 2-17, {5-[5-Bromo-6-(indan-5-yloxy)-pyridine-3-sulfonylamino]-5,6,7,8-tetrahydro-naphthalen-1-yloxy}-acetic acid] | 115 |
| O=C(O)COc1cccc2c1CCCC2NS(=O)(=O)c1cnc(Oc2ccc(CCO)cc2)c(Br)c1 (stereo not shown) [Example 2-22, (5-{5-Bromo-6-[4-(2-hydroxy-ethyl)-phenoxy]-pyridine-3-sulfonylamino}-5,6,7,8-tetrahydro-naphthalen-1-yloxy)-acetic acid] | 31.7 |
| O=C(O)COc1cccc2c1CCC[C@H]2NS(=O)(=O)c1ccc(Oc2ccc(F)cc2)c(C(F)(F)F)c1 [Example 2-42, {(R)-5-[4-(4-Fluoro-phenoxy)-3-trifluoromethyl-benzenesulfonylamino]-5,6,7,8-tetrahydro-naphthalen-1-yloxy}-acetic acid] | 11.2 |
